Measurements from BindingDB's records for doi:10.1016/j.bioorg.2016.03.010 (Universiti Teknologi Mara (Uitm), Puncak Alam Campus, 2016).

The compounds below were run against Urease (Canavalia ensiformis, UniProt P07374) (assay: Urease Inhibition Assay). Conditions: pH 6.8; 30 °C.
Method: To understand the binding modes of the compounds given in Table 1, all ligands were docked into the binding site of Urease enzyme. The top ranked conformations of each ligand were saved in a separate database for further evaluation. The docking results well correlated with the experimental results. The reaction mixtures, comprising 25 uL of enzyme (jack bean urease, Sigma aldrich) solution and 55 uL of buffers containing 100 mM urea, were incubated with 5 uL of the test compounds (0.5 mM concentration) at 30 °C for 15 min in 96-well plates. For the kinetics assessment the urea concentrations were changed from 2 to 24 mM. Urease activity was determined by measuring ammonia production using the indophenol method as described by Weatherburn. Briefly, 45 uL of phenol reagent (1% w/v phenol and 0.005% w/v sodium nitroprusside (Sigma Aldrich)) and, 70 uL of alkali reagent (0.5% w/v NaOH (Sigma Aldrich) and 0.1% active chloride NaOCl (Sigma Aldrich)) were added to each well. The increasing absorbance at 630 nm was measured after 50 min, using a microplate reader (Molecular Device, USA). All reactions were performed in triplicate in a final volume of 200 uL. The results (change in absorbance per min) were processed by using SoftMax-Pro software (molecular Device, USA). The entire assays were performed at pH 6.8.

Sequence of Urease (P07374 whole entry): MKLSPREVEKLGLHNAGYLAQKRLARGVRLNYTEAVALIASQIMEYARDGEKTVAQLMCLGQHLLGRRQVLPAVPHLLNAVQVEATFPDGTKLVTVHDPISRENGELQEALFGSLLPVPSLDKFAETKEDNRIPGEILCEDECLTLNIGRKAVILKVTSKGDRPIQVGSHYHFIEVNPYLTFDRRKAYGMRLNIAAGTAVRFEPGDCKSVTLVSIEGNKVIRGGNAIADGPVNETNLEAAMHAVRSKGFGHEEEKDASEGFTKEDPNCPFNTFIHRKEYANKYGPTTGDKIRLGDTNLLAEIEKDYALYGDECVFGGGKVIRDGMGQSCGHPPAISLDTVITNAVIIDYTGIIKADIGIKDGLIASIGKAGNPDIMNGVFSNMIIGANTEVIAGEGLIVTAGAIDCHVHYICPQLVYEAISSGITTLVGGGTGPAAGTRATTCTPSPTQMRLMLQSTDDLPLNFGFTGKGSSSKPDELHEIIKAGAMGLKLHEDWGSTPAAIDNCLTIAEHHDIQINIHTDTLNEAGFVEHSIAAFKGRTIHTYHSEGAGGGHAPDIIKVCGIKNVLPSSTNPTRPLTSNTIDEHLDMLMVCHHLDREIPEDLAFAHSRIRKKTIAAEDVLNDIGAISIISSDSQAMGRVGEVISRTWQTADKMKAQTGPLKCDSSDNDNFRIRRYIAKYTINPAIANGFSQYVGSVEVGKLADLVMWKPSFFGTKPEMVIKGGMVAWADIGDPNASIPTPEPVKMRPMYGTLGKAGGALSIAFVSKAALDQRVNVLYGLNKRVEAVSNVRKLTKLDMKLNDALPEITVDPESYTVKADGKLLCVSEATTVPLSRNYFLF

Point of comparison: O=C(NNC(=S)Nc1cccc([N+](=O)[O-])c1)c1ccc(-c2nc3ccccc3s2)cc1 [4-(1,3-benzothiazol-2-yl)-N-{[(3-nitrophenyl)carbamothioyl]amino}benzamide (14)], IC50 5.7 µM. Against it:
- O=C(NNC(=S)Nc1ccccc1Br)c1ccc(-c2nc3ccccc3s2)cc1 [2-(4-(benzo[d]thiazol-2-yl)benzoyl)-N-(2-bromophenyl)hydrazinecarbothioamide (4)] — within 1.5-fold, 6.9 µM
- O=C(NNC(=S)Nc1ccccc1Cl)c1ccc(-c2nc3ccccc3s2)cc1 [2-(4-(benzo[d]thiazol-2-yl)benzoyl)-N-(2-chlorophenyl)hydrazinecarbothioamide (3)] — within 1.5-fold, 4.3 µM
- O=C(NNC(=S)Nc1ccccc1F)c1ccc(-c2nc3ccccc3s2)cc1 [2-(4-(benzo[d]thiazol-2-yl)benzoyl)-N-(2-fluorophenyl)hydrazinecarbothioamide (2)] — 1.7-fold lower, 3.4 µM
- O=C(NNC(=S)Nc1cccc(F)c1)c1ccc(-c2nc3ccccc3s2)cc1 [2-(4-(benzo[d]thiazol-2-yl)benzoyl)-N-(3-fluorophenyl)hydrazinecarbothioamide (12)] — within 1.5-fold, 6.3 µM
- COc1cccc(NC(=S)NNC(=O)c2ccc(-c3nc4ccccc4s3)cc2)c1 [2-(4-(benzo[d]thiazol-2-yl)benzoyl)-N-(3-methoxyphenyl)hydrazinecarbothioamide (15)] — 4.9-fold higher, 28.1 µM
- O=C(NNC(=S)Nc1ccc(C(F)(F)F)cc1)c1ccc(-c2nc3ccccc3s2)cc1 [2-(4-(benzo[d]thiazol-2-yl)benzoyl)-N-(4-(trifluoromethyl)phenyl)hydrazine-carbothioamide (17)] — 3.6-fold lower, 1.6 µM
- O=C(NNC(=S)Nc1ccc(Br)cc1)c1ccc(-c2nc3ccccc3s2)cc1 [2-(4-(benzo[d]thiazol-2-yl)benzoyl)-N-(4-bromophenyl)hydrazinecarbothioamide (7)] — 2.4-fold higher, 13.7 µM
- O=C(NNC(=S)Nc1ccc(Cl)cc1)c1ccc(-c2nc3ccccc3s2)cc1 [2-(4-(benzo[d]thiazol-2-yl)benzoyl)-N-(4-chlorophenyl)hydrazinecarbothioamide (8)] — within 1.5-fold, 5.5 µM
- O=C(NNC(=S)Nc1ccc(F)cc1)c1ccc(-c2nc3ccccc3s2)cc1 [2-(4-(benzo[d]thiazol-2-yl)benzoyl)-N-(4-fluorophenyl)hydrazinecarbothioamide (6)] — 2.3-fold lower, 2.5 µM
- COc1ccc(NC(=S)NNC(=O)c2ccc(-c3nc4ccccc4s3)cc2)cc1 [2-(4-(benzo[d]thiazol-2-yl)benzoyl)-N-(4-methoxyphenyl)hydrazinecarbothioamide (9)] — 2.4-fold higher, 13.6 µM
- O=C(NNC(=S)Nc1ccc([N+](=O)[O-])cc1)c1ccc(-c2nc3ccccc3s2)cc1 [2-(4-(benzo[d]thiazol-2-yl)benzoyl)-N-(4-nitrophenyl)hydrazinecarbothioamide (10)] — 4.1-fold lower, 1.4 µM
- Cc1cccc(NC(=S)NNC(=O)c2ccc(-c3nc4ccccc4s3)cc2)c1 [2-(4-(benzo[d]thiazol-2-yl)benzoyl)-N-(m-tolyl)hydrazinecarbothioamide (11)] — 3.3-fold higher, 18.7 µM
- Cc1ccccc1NC(=S)NNC(=O)c1ccc(-c2nc3ccccc3s2)cc1 [2-(4-(benzo[d]thiazol-2-yl)benzoyl)-N-(o-tolyl)hydrazinecarbothioamide (1)] — within 1.5-fold, 7.4 µM
- Cc1ccc(NC(=S)NNC(=O)c2ccc(-c3nc4ccccc4s3)cc2)cc1 [2-(4-(benzo[d]thiazol-2-yl)benzoyl)-N-(p-tolyl)hydrazinecarbothioamide (5)] — 1.8-fold higher, 10.4 µM
- O=C(NNC(=S)Nc1ccccc1)c1ccc(-c2nc3ccccc3s2)cc1 [2-(4-(benzo[d]thiazol-2-yl)benzoyl)-N-phenylhydrazinecarbothioamide (20)] — 3.4-fold higher, 19.1 µM
- O=C(NNC(=S)Nc1cccc(Br)c1)c1ccc(-c2nc3ccccc3s2)cc1 [4-(1,3-benzothiazol-2-yl)-N-{[(3-bromophenyl)carbamothioyl]amino}benzamide (13)] — 2-fold higher, 11.4 µM
- O=C(NNC(=S)NC12CC3CC(CC(C3)C1)C2)c1ccc(-c2nc3ccccc3s2)cc1 [N-(adamantan-1-yl)-2-(4-(benzo[d]thiazol-2-yl)benzoyl)hydrazinecarbothioamide (19)] — 6-fold higher, 34.4 µM
